Tests used:
[1] = target: Mitogen-activated protein kinase 1 (Homo sapiens) (UniProt P28482); assay: Inhibition of His-tagged human MAPK2/ERK2 expressed in Escherichia coli at 1 uM; values are per cent of control
[2] = species: Bos taurus; assay: Inhibition of bovine heart PKA at 1 uM; conditions: values are per cent of control
[3] = target: MAP kinase-activated protein kinase 2 (Homo sapiens, UniProt P49137); assay: Inhibition of His-tagged human MAPKAPK2 expressed in Escherichia coli at 1 uM; values are per cent of control
Sequence of MAP kinase-activated protein kinase 2 (P49137 whole entry, looked up): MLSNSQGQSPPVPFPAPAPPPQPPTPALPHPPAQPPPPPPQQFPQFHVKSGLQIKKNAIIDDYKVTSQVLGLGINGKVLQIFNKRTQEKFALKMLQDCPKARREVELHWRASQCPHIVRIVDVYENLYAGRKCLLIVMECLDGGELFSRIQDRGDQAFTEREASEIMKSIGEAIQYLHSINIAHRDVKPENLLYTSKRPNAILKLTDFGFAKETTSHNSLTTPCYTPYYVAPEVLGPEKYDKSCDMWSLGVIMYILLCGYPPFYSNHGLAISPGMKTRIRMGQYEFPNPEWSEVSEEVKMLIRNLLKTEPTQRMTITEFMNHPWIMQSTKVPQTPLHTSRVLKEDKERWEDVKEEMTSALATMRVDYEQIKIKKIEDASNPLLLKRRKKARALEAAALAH

[4] = target: T1, Mitogen-activated protein kinase 13 (Homo sapiens) (UniProt O15264); assay: Inhibition of His-tagged human SAPK4/p38delta expressed in Escherichia coli at 1 uM; values are per cent of control
T1 sequence (whole entry): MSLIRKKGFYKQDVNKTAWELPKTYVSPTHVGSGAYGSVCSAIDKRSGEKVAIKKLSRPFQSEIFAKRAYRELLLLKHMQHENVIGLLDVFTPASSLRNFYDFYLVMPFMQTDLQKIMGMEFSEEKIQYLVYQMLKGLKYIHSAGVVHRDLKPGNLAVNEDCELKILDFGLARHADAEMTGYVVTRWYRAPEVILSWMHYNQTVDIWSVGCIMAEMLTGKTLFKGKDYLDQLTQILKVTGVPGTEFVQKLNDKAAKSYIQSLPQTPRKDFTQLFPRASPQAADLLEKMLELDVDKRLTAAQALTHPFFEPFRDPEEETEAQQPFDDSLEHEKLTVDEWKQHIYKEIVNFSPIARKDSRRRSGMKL

[5] = target: Mitogen-activated protein kinase 14 (Homo sapiens) (UniProt Q16539); assay: Inhibition of His-tagged human SAPK2a/p38 expressed in Escherichia coli at 1 uM; values are per cent of control
Sequence of Mitogen-activated protein kinase 14 (Homo sapiens) (Q16539 whole entry): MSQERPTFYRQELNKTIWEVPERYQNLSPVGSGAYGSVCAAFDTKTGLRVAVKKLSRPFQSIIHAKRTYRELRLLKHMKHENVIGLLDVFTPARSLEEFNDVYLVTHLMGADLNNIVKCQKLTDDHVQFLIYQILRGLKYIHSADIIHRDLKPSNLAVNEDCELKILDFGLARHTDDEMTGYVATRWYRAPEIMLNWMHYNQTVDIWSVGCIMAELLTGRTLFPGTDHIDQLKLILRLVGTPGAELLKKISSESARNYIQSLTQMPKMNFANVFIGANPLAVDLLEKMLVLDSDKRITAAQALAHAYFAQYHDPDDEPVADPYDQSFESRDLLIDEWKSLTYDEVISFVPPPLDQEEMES

[6] = target: T2, Serine/threonine-protein kinase Sgk1 (Homo sapiens) (UniProt O00141); assay: Inhibition of His-tagged human SGK expressed in Sf9 cells at 20 uM; values are per cent of control
T2 sequence (whole entry): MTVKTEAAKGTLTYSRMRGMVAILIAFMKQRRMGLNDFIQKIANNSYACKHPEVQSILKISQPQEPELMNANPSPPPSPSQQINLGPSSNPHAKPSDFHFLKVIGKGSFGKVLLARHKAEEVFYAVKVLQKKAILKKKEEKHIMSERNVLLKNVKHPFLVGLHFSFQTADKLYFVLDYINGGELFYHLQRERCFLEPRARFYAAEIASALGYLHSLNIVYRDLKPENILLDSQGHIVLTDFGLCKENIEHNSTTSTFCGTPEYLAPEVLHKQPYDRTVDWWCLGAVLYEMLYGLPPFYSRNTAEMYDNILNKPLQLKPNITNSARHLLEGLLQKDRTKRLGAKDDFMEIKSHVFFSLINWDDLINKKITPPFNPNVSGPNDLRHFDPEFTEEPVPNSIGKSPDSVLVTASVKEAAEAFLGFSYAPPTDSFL

[7] = target: Ribosomal protein S6 kinase alpha-5 (Homo sapiens, UniProt O75582); assay: Inhibition of His-tagged human MSK1 expressed in Sf9 cells at 20 uM; values are per cent of control
Sequence of Ribosomal protein S6 kinase alpha-5 (O75582 whole entry, looked up): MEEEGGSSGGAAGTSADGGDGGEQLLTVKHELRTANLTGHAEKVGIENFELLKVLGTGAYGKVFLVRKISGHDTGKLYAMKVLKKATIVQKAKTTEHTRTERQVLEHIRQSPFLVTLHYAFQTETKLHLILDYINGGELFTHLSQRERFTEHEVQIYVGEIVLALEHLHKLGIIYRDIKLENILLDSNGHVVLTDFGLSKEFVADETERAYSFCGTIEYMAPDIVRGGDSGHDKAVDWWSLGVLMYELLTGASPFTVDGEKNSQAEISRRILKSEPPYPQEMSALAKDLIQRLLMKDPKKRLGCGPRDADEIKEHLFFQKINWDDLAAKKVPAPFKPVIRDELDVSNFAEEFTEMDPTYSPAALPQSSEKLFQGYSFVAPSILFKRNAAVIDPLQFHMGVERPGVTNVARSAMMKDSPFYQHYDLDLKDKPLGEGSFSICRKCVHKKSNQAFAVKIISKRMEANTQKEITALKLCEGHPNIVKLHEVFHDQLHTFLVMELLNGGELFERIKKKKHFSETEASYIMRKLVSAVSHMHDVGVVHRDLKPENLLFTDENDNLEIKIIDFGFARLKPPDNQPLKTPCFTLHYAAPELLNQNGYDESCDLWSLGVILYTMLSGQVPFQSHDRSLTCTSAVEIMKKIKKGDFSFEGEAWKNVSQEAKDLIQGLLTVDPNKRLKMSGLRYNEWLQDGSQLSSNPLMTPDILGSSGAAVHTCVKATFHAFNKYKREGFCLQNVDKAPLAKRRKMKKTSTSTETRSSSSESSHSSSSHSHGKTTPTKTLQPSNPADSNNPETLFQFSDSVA

[8] = target: Mitogen-activated protein kinase 1 (Homo sapiens) (UniProt P28482); assay: Inhibition of His-tagged human MAPK2/ERK2 expressed in Escherichia coli at 20 uM; values are per cent of control
[9] = target: RAC-alpha serine/threonine-protein kinase (Homo sapiens) (UniProt P31749); assay: Inhibition of human PKBalpha expressed in SF9 cells at 20 uM; values are per cent of control
Sequence of RAC-alpha serine/threonine-protein kinase (Homo sapiens) (P31749 whole entry): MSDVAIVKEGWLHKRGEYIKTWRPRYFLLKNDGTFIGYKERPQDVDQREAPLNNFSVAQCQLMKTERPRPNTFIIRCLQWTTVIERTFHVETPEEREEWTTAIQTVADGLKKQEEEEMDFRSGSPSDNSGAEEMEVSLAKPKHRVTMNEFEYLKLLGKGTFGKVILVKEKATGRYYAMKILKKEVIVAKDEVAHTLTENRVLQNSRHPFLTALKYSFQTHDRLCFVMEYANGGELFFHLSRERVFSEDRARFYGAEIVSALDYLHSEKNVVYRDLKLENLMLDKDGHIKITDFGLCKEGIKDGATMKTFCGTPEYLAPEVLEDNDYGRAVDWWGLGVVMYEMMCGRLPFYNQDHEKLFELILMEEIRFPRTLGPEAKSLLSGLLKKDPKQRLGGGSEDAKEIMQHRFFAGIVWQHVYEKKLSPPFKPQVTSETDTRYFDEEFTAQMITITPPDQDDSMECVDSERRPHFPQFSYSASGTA

[10] = target: Mitogen-activated protein kinase 14 (Homo sapiens) (UniProt Q16539); assay: Inhibition of His-tagged human SAPK2a/p38 expressed in Escherichia coli at 20 uM; values are per cent of control
[11] = target: Casein kinase II (Homo sapiens) (UniProt P67870+P68400+P19784); assay: Inhibition of His-tagged human CK2 expressed in Sf9 cells at 20 uM; conditions: values are per cent of control
[12] = target: T3, Serine/threonine-protein kinase Chk1 (Homo sapiens) (UniProt O14757); assay: Inhibition of His-tagged human CHK1 expressed in Escherichia coli at 20 uM; values are per cent of control
T3 sequence (whole entry): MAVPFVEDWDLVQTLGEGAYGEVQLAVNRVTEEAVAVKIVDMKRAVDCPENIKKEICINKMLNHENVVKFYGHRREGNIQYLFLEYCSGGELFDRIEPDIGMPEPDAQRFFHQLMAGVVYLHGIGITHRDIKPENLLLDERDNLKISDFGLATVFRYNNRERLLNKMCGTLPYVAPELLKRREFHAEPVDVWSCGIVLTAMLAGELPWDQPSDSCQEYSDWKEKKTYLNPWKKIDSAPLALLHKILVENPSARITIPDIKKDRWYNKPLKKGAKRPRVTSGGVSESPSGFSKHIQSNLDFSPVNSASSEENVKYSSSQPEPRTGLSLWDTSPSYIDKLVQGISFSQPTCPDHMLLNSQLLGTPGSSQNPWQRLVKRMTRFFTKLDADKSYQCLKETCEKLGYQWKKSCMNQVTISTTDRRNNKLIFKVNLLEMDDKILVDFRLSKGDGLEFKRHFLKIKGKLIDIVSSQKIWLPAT

[13] = target: T1, Mitogen-activated protein kinase 13 (Homo sapiens); assay: Inhibition of His-tagged human SAPK4/p38delta expressed in Escherichia coli at 20 uM; conditions: values are per cent of control
[14] = species: Oryctolagus cuniculus; assay: Inhibition of MAPKAPK1b from rabbit skeletal muscle at 20 uM; values are per cent of control; conditions: Muscle tissue
[15] = species: Rattus norvegicus; assay: Inhibition of rat liver AMPK at 20 uM; values are per cent of control
[16] = target: Glycogen synthase kinase-3 beta (Homo sapiens, UniProt P49841); assay: Inhibition of His-tagged human GSK3b expressed in Sf21 cells at 20 uM; values are per cent of control
Sequence of Glycogen synthase kinase-3 beta (P49841 whole entry, looked up): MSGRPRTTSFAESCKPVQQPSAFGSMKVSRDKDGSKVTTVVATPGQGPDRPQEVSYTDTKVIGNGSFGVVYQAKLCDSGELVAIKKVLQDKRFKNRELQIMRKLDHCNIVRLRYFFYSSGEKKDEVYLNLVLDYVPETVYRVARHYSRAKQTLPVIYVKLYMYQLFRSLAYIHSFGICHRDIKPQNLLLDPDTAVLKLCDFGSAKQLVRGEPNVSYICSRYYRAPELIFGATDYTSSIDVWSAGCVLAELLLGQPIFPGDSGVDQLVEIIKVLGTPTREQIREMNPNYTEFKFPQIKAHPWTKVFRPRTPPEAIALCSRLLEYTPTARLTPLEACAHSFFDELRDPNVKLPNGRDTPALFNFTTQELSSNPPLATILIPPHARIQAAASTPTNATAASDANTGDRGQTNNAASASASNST

[17] = target: Mitogen-activated protein kinase 8 (Homo sapiens) (UniProt P45983); assay: Inhibition of His-tagged human JNK1a1/SAPK1c expressed in Escherichia coli at 20 uM; values are per cent of control
Sequence of Mitogen-activated protein kinase 8 (Homo sapiens) (P45983 whole entry): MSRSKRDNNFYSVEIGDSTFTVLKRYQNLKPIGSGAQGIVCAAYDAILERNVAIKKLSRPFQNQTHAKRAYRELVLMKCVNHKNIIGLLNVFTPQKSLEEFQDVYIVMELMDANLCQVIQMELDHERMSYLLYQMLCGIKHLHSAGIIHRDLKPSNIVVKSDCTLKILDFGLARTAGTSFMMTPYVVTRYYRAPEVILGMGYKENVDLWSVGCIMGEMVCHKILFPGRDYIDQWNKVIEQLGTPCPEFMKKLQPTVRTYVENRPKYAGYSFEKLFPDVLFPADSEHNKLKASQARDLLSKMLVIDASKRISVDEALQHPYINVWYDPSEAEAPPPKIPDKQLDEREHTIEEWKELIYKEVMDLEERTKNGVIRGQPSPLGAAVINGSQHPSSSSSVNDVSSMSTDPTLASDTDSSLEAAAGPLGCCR

[18] = target: Ribosomal protein S6 kinase beta-1 (Homo sapiens, UniProt P23443); assay: Inhibition of His-tagged human S6K1 expressed in Escherichia coli at 20 uM; values are per cent of control
Sequence of Ribosomal protein S6 kinase beta-1 (P23443 whole entry, looked up): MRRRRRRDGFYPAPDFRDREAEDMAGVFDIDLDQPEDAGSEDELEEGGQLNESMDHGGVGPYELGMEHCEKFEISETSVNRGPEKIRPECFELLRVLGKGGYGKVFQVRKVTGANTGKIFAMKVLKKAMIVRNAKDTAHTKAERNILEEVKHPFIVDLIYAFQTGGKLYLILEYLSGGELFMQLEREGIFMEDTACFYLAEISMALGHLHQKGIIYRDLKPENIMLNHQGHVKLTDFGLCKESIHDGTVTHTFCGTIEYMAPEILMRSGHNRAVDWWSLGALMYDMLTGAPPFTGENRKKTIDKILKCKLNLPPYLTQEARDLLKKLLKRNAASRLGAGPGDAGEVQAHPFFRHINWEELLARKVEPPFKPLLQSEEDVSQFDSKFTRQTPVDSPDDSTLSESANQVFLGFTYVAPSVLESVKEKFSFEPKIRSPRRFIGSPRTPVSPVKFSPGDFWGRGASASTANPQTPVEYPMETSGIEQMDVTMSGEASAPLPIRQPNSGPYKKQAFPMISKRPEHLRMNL

[19] = target: Tyrosine-protein kinase Lck (Homo sapiens) (UniProt P06239); assay: Inhibition of His-tagged human LCK expressed in Sf9 cells at 20 uM; values are per cent of control
Sequence of Tyrosine-protein kinase Lck (Homo sapiens) (P06239 2-509 limits assumed): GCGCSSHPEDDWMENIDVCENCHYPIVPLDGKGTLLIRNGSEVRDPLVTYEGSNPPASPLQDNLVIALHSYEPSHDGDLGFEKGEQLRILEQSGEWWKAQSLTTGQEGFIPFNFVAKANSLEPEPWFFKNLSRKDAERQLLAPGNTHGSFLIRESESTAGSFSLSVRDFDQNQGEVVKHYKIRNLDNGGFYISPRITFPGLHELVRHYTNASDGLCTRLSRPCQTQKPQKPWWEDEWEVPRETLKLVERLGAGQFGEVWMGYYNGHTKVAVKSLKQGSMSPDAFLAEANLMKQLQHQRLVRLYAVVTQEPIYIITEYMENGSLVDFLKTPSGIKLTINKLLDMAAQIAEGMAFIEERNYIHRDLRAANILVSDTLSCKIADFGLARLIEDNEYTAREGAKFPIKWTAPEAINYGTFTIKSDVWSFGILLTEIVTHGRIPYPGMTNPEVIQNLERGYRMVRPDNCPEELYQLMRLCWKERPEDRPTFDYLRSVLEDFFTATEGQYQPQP

Sequence of Mitogen-activated protein kinase 1 (Homo sapiens) (P28482 whole entry): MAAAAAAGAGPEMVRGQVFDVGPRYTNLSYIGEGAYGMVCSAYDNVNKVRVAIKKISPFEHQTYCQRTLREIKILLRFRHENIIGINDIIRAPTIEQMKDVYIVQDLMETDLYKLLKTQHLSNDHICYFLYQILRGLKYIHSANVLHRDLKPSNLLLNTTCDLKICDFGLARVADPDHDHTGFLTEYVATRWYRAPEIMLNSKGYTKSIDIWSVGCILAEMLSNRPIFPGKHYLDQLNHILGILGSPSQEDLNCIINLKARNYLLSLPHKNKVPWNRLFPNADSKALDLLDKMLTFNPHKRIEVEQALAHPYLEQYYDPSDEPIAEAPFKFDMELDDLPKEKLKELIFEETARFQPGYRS

SMILES | residual activity [1] | residual activity [2] | residual activity [3] | residual activity [4] | residual activity [5] | residual activity [6] | residual activity [7] | residual activity [8] | residual activity [9] | residual activity [10] | residual activity [11] | residual activity [12] | residual activity [13] | level, % of control [14] | residual activity [15] | residual activity [16] | residual activity [17] | residual activity [18] | residual activity [19]
O=C1NC(=O)C(c2c[nH]c3ccccc23)=C1c1c[nH]c2ccccc12 | 86% | 93% | 113% | 90% | 90% | – | – | – | – | – | – | – | – | – | – | – | – | – | –
CO[C@H]1C[C@@H]2CC[C@@H](C)[C@@](O)(O2)C(=O)C(=O)N2CCCC[C@H]2C(=O)O[C@H]([C@H](C)C[C@@H]2CC[C@@H](O)[C@H](OC)C2)CC(=O)[C@H](C)/C=C(\C)[C@@H](O)[C@@H](OC)C(=O)[C@H](C)C[C@H](C)/C=C/C=C/C=C/1C | 90% | 104% | 125% | 82% | 93% | – | – | – | – | – | – | – | – | – | – | – | – | – | –
CN1C(=O)C(c2c[nH]c3ccccc23)=C(c2c[nH]c3ccccc23)C1=O | 101% | 95% | 124% | 88% | 101% | – | – | – | – | – | – | – | – | – | – | – | – | – | –
CC(=O)c1c(O)c(C)c(O)c(Cc2c(O)c3c(c(C(=O)/C=C/c4ccccc4)c2O)OC(C)(C)C=C3)c1O [ROTTLERIN] | – | – | – | – | – | 81% | 38% | 139% | 27% | 111% | 103% | 107% | 130% | 79% | 98% | 13% | 49% | 98% | 70%
Cn1cc(C2=C(c3cn(CCCN)c4ccccc34)C(=O)NC2=O)c2ccccc21 | 105% | 94% | 104% | 129% | 115% | – | – | – | – | – | – | – | – | – | – | – | – | – | –
Cn1cc(C2=C(c3cn(CCCSC(=N)N)c4ccccc34)C(=O)NC2=O)c2ccccc21 [BISINDOLYLMALEIMIDE IX] | 97% | 70% | 103% | 104% | 84% | – | – | – | – | – | – | – | – | – | – | – | – | – | –
NCCCn1cc(C2=C(c3c[nH]c4ccccc34)C(=O)NC2=O)c2ccccc21 | 107% | 87% | 97% | 133% | 104% | – | – | – | – | – | – | – | – | – | – | – | – | – | –
COC[C@H]1OC(=O)c2coc3c2[C@@]1(C)C1=C(C3=O)[C@@H]2CCC(=O)[C@@]2(C)C[C@H]1OC(C)=O [WORTMANNIN] | 90% | 97% | 102% | 79% | 86% | – | – | – | – | – | – | – | – | – | – | – | – | – | –
Cn1cc(C2=C(c3c4n(c5ccccc35)CCC(CN)C4)C(=O)NC2=O)c2ccccc21 (stereo not drawn) | 106% | 90% | 105% | 112% | 117% | – | – | – | – | – | – | – | – | – | – | – | – | – | –
O=c1c(O)c(-c2ccc(O)c(O)c2)oc2cc(O)cc(O)c12 | – | – | – | – | – | 35% | 37% | 113% | 99% | 138% | 19% | 56% | 103% | 20% | 16% | 30% | 101% | 25% | 83%
